Molecular target: recombinant RORγ Ligand Binding Domain (LBD) protein (Homo sapiens (Human), UniProt P51449)
Assay: Radio-Ligand RORγ Binding Assay (Assay 1)
Settings: radio-ligand 25-hydroxy [26,27-3H]-cholesterol competition
Method: Radio-Ligand RORγ Binding Assay (Assay 1)
Compounds described herein were tested for ability to bind to RORγ in a cell-free competition assay with commercially available radio-ligand (RL), 25-hydroxy [26,27-^3H]-cholesterol (PerkinElmer, Cat. # NET674250UC), for a ligand binding site on a recombinant RORγ Ligand Binding Domain (LBD) protein expressed as a 6×His-Glutathione-S-Transferase (GST) fusion. […] The plate was shaken at 700 rpm for 20 min and incubated for 10 min at rt, after which 40 μL of poly-Lys YSi SPA beads (PerkinElmer, Cat. # RPNQ0010) were added to achieve 50 μg of the beads per well. The plate was incubated on an orbital shaker for 20 min and then for 10 min without agitation at rt. SPA signal for tritium beta radiation was registered on PerkinElmer Microbeta plate reader. […] The percent inhibition vs. concentration data were fit into a four-parameter model, and IC50 values were calculated from the fit as the concentrations corresponding to the inflection points on the dose-response curves. […]

Sequence of recombinant RORγ Ligand Binding Domain (LBD) protein (P51449 269-508): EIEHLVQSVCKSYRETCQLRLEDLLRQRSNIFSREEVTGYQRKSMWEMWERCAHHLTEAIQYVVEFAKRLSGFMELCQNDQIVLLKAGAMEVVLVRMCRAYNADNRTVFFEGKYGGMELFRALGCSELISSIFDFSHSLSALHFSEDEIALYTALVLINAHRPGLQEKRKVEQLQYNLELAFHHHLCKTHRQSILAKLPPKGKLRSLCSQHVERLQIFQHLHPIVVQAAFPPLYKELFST

Ki | SMILES
100 to 1000 nM | CCn1c(CC2CCC(C(F)(F)F)OC2)nc2cc(C(=O)NCc3ccc(S(=O)(=O)CC)cc3)ccc21 (single isomer, unassigned) [BE-56.1, 1-ethyl-N-(4-(ethylsulfonyl)benzyl)-2-((6-(trifluoromethyl)tetrahydro-2H-pyran-3-yl)methyl)-1H-benzo[d]imidazole-5-carboxamide]
100 to 1000 nM | CCn1c(CC2CCC(C(F)(F)F)OC2)nc2cc(C(=O)NCc3ccc(S(=O)(=O)CC)cc3)ccc21 (single isomer, unassigned) [BE-56.2, 1-ethyl-N-(4-(ethylsulfonyl)benzyl)-2-((6-(trifluoromethyl)tetrahydro-2H-pyran-3-yl)methyl)-1H-benzo[d]imidazole-5-carboxamide]
100 to 1000 nM | CCn1c(CC2CCC(C(F)(F)F)OC2)nc2cc(C(=O)NCc3ccc(S(=O)(=O)CC)cc3)ccc21 (single isomer, unassigned) [BE-56.3, 1-ethyl-N-(4-(ethylsulfonyl)benzyl)-2-((6-(trifluoromethyl)tetrahydro-2H-pyran-3-yl)methyl)-1H-benzo[d]imidazole-5-carboxamide]
< 100 nM | C=C(C)Cn1c(Cc2ccc(C(F)(F)F)cc2)cc2cc(C(=O)NCc3ccc(S(=O)(=O)CC)cc3)cnc21 [AI-3, N-(4-(ethylsulfonyl)benzyl)-1-(2-methylallyl)-2-(4-(trifluoromethyl)benzyl)-1H-pyrrolo[2,3-b]pyridine-5-carboxamide]
100 to 1000 nM | CCn1c(Oc2ccc(C(F)(F)F)cc2)nc2cc(C(=O)N[C@@H](CN(C)C)c3ccc(S(=O)(=O)CC)cc3)ccc21 [BE-10, (R)-N-(2-(dimethylamino)-1-(4-(ethylsulfonyl)phenyl)ethyl)-1-ethyl-2-(4-(trifluoromethyl)phenoxy)-1H-benzo[d]imidazole-5-carboxamide]
< 100 nM | CCS(=O)(=O)c1ccc(CNC(=O)c2ccc3c(c2)nc(Cc2ccc(C(F)(F)F)cc2)n3C2CCC2)cc1 [BE-38, 1-cyclobutyl-N-(4-(ethylsulfonyl)benzyl)-2-(4-(trifluoromethyl)benzyl)-1H-benzo[d]imidazole-5-carboxamide]
< 100 nM | CCS(=O)(=O)c1ccc(CNC(=O)c2ccc3c(c2)nc(Cc2ccc(C(F)(F)F)cc2)n3CC(C)C)nc1 [BE-43, N-((5-(ethylsulfonyl)pyridin-2-yl)methyl)-1-isobutyl-2-(4-(trifluoromethyl)benzyl)-1H-benzo[d]imidazole-5-carboxamide]
100 to 1000 nM | CCS(=O)(=O)c1ccc(CNC(=O)c2cc(Br)c3c(c2)nc(C[C@H]2CC[C@H](C(F)(F)F)CC2)n3C)cc1 [BE-58, 7-bromo-N-(4-(ethylsulfonyl)benzyl)-1-methyl-2-(((1r,4r)-4-(trifluoromethyl)cyclohexyl)methyl)-1H-benzo[d]imidazole-5-carboxamide]
100 to 1000 nM | CCS(=O)(=O)c1ccc(CNC(=O)c2cc(Br)c3c(c2)nc(Cc2ccc(C(F)(F)F)cc2)n3C)cc1 [BE-59, 7-bromo-N-(4-(ethylsulfonyl)benzyl)-1-methyl-2-(4-(trifluoromethyl)benzyl)-1H-benzo[d]imidazole-5-carboxamide]

SMILES | Ki
CS(=O)(=O)c1ccc(CNC(=O)c2cnc3c(c2)nc(Cc2ccc(C(F)(F)F)cc2)n3C2CC2)cc1 [AB-2, 3-cyclopropyl-N-(4-(methylsulfonyl)benzyl)-2-(4-(trifluoromethyl)benzyl)-3H-imidazo[4,5-b]pyridine-6-carboxamide] | 100 to 1000 nM
CCS(=O)(=O)c1ccc([C@@H](CO)NC(=O)c2ccc3c(c2)nc(C[C@H]2CC[C@H](C(F)(F)F)CC2)n3C2CC2)nc1 [BE-29, 1-cyclopropyl-N-((S)-1-(5-(ethylsulfonyl)pyridin-2-yl)-2-hydroxyethyl)-2-(((1r,4S)-4-(trifluoromethyl)cyclohexyl)methyl)-1H-benzo[d]imidazole-5-carboxamide] | > 1000 nM

Reference: US10301261B2, “Substituted indoles as modulators of ROR-gamma” (Vitae Pharmaceuticals, LLC, priority 2015, dated 2019)
